Reference: patent US20250170266A1 (ZYMEWORKS BC INC., priority 2022, published 2025)
Read-outs that look alike come from different tables or passages of the source.

Legend:
Assay type in all cases: cell-based
[1] = biological target: T1, hTLR7 (Homo sapiens, UniProt Q9NYK1); assay: Reporter Gene Assay (RGA), HEK-Blue hTLR7 reporter cells, SEAP readout; details: overnight incubation, SEAP absorbance 620 nm
T1 construct: host or cells: HEK-Blue hTLR7 reporter cells (HEK293-derived, own knowledge)
T1 sequence (Q9NYK1 27-1049): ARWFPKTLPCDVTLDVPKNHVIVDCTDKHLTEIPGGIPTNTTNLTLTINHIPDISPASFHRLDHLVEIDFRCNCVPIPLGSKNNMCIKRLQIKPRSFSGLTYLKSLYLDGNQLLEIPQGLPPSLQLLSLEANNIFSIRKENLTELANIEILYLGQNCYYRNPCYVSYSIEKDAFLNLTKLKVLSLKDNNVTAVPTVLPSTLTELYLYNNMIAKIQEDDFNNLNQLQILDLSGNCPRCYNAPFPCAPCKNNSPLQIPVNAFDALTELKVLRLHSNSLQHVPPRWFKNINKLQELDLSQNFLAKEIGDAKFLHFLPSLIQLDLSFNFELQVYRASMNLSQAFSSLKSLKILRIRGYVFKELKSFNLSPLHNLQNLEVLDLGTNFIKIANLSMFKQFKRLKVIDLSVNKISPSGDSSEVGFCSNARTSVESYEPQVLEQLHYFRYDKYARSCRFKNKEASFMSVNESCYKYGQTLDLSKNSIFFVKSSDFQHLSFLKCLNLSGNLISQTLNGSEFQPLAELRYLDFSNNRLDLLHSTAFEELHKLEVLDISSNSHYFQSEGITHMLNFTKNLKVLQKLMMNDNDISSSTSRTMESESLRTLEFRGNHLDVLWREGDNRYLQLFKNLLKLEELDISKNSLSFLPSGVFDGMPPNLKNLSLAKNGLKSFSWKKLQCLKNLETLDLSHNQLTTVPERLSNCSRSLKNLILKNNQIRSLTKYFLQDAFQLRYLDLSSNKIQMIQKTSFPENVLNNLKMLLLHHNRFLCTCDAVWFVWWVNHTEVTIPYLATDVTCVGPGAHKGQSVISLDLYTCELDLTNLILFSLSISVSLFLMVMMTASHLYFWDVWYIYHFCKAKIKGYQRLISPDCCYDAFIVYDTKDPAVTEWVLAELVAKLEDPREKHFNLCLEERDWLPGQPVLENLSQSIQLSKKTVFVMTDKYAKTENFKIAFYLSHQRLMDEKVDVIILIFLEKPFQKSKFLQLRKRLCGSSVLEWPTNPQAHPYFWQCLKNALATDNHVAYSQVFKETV
Summary of the method: (§1)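 HEK-Blue reporter cells expressing human or mouse TLR7 (1.5×10^4 cells) were treated with an 11-point, 4-fold compound titration from 15 pM in HEK-Blue Detection medium. Incubation was overnight at 37° C with 5% CO2. Secreted embryonic alkaline phosphatase was read as absorbance at 620 nm.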

[2] = tested on: Human peripheral blood mononuclear cells (PBMCs); assay: Human PBMC Assay, cytokine release (HTRF); details: PBMC, 24 hours
Summary of the method: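 Cryopreserved human PBMCs, rested overnight with 10 ng/ml hIL3, then 300,000 cells/well treated 24 h at 37° C with compound (4-fold, 11-point titration from 15 μM) in RPMI+10% FBS. Supernatant hIL6, hTNFα and hIFNα measured by HTRF; growth medium as negative control.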

[3] = tested on: Mouse splenocytes; assay: Mouse Splenocyte Assay, cytokine release (HTRF); details: 24 hours, mIL6 in supernatant; for EC50: Splenocyte, read-out: Splenocyte IL6 EC50
Summary of the method: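 Splenocytes from female balb/c nude mice, thawed, 100,000 per well in RPMI + 10% FBS. Exposed for 24 h at 37 °C to a 4-fold 11-point compound titration from 15 μM; supernatant mIL6 and mTNFα measured by HTRF.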

[4] = biological target: T2, mTLR7 (Mus musculus, UniProt P58681); assay: Reporter Gene Assay (RGA), HEK-Blue mTLR7 reporter cells, SEAP readout; details: overnight incubation, SEAP absorbance 620 nm
T2 construct: host or cells: HEK-Blue mTLR7 reporter cells (HEK293-derived, own knowledge)
T2 sequence (P58681 27-1050): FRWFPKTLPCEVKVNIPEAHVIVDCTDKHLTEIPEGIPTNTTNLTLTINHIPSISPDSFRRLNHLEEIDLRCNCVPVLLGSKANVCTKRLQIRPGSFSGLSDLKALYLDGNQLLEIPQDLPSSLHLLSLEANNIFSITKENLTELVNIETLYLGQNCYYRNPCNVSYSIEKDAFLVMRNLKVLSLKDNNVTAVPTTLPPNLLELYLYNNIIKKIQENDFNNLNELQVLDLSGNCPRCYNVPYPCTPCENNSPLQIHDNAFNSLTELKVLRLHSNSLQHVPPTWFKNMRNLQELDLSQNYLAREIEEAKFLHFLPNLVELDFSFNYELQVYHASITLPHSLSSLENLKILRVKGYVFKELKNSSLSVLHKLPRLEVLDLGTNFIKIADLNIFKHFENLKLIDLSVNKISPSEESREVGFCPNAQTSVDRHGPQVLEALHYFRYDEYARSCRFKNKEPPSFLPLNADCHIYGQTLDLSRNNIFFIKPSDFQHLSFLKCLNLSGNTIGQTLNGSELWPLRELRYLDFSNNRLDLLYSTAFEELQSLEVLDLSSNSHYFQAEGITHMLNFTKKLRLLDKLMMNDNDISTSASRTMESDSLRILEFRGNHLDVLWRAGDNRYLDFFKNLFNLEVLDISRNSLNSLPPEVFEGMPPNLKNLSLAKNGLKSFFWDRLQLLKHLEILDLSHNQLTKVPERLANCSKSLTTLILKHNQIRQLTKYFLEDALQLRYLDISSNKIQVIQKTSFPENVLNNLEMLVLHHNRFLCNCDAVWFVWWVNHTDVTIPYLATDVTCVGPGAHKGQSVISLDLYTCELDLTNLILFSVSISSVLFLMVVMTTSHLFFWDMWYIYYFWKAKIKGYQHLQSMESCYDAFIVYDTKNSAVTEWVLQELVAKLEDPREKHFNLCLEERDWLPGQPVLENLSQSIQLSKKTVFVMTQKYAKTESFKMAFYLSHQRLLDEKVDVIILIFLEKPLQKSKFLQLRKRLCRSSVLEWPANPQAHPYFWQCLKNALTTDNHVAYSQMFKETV
Summary of the method: as §1

[5] = hIFNα in supernatant, EC50 values approximated and divided into groups, read-out: PBMC IFNa EC50
[6] = hIL6 in supernatant, read-out: PBMC IL6 EC50

| SMILES | EC50 [1] | EC50 [2, 5] | EC50 [2, 6] | EC50 [3] | EC50 [4] | Splenocyte IL6 EC50 (nM) [3] |
| --- | --- | --- | --- | --- | --- | --- |
| CCOc1nc(N)c2nc(O)n(Cc3ccc(CNCCN)cc3OC)c2n1 [Compound 111, 6-amino-9-(4-(((2-aminoethyl)amino)methyl)-2-methoxybenzyl)-2-ethoxy-9H-purin-8-ol] | 102 nM | 1 to 10 nM | 531 nM | 20.8 nM | 86.9 nM |  |
| CCCCCNc1nc(N)c2nc(O)n(Cc3ccc(CNCC(C)(C)O)cc3)c2n1 [Compound 184, 6-amino-9-(4-(((2-hydroxy-2-methylpropyl)amino)methyl)benzyl)-2-(pentyl-amino)-9H-purin-8-ol] | 278 nM | 0.1 to 1 nM | 29.2 nM | 144 nM | 20.4 nM |  |
| CCOc1nc(N)c2nc(O)n(Cc3ccc(CN4CCC5(CCNCC5)CC4)cc3OC)c2n1 [Compound 139, 9-(4-((3,9-diazaspiro[5.5]undecan-3-yl)methyl)-2-methoxybenzyl)-6-amino-2-ethoxy-9H-purin-8-ol] | 6.5 nM | > 10 nM | 115 nM | 170 nM | 96.5 nM |  |
| CCOc1nc(N)c2nc(O)n(Cc3ccc(CN4CCNCC4)cc3F)c2n1 [Compound 152, 6-amino-2-ethoxy-9-(2-fluoro-4-(piperazin-1-ylmethyl)benzyl)-9H-purin-8-ol] | 1.3 nM | 0.1 to 1 nM | 17 nM |  | 31.7 nM | inactive |
| CCOc1nc(N)c2nc(O)n(Cc3ccc(CN4CCC(CN)CC4)cc3OC)c2n1 [Compound 132, 6-amino-9-(4-((4-(aminomethyl)piperidin-1-yl)methyl)-2-methoxybenzyl)-2-ethoxy-9H-purin-8-ol] | 5.8 nM | > 10 nM | 116 nM | 234 nM | 65.1 nM |  |
| CCCCCNc1nc(N)c2nc(O)n(Cc3ccc(CNCCCCN)cc3)c2n1 [Compound 190, 6-amino-9-(4-(((4-aminobutyl)amino)methyl)benzyl)-2-(pentylamino)-9H-purin-8-ol] | 1420 nM | 1 to 10 nM | 131 nM | 106 nM | 80.8 nM |  |
| CCOc1nc(N)c2nc(O)n(Cc3ccc(CN)cc3OC)c2n1 [Compound 123, 6-amino-9-(4-(aminomethyl)-2-methoxybenzyl)-2-ethoxy-9H-purin-8-ol] | 30.7 nM | 1 to 10 nM | 684 nM | 145 nM | 146 nM |  |
| CCCCOc1nc(N)c2nc(O)n(Cc3ccc(CNCC(C)(C)O)cc3OC)c2n1 [Compound 159, 6-amino-2-butoxy-9-(4-(((2-hydroxy-2-methylpropyl)amino)methyl)-2-methoxybenzyl)-9H-purin-8-ol] | 1.6 nM | < 0.1 nM |  | 2 nM | 2.9 nM |  |
| CCOc1nc(N)c2nc(O)n(Cc3ccc(CN4CCNCC4)cc3)c2n1 [Compound 150, 6-amino-2-ethoxy-9-(4-(piperazin-1-ylmethyl)benzyl)-9H-purin-8-ol] | 6.9 nM | 0.1 to 1 nM | 322 nM | 2130 nM | 83.8 nM |  |
| CCOc1nc(N)c2nc(O)n(Cc3ccc(CNCc4cccnc4)cc3OC)c2n1 [Compound 193] | 60 nM | 0.1 to 1 nM | 109 nM | 48.2 nM | 5.9 nM |  |
| CCOc1nc(N)c2nc(O)n(Cc3ccc(CNCCN4CCSCC4)cc3OC)c2n1 [Compound 137, 6-amino-2-ethoxy-9-(2-methoxy-4-(((2-thiomorpholinoethyl)amino)methyl)-benzyl)-9H-purin-8-ol] | 22.2 nM | 0.1 to 1 nM | 39.4 nM | 230 nM | 210 nM |  |
| CCOc1nc(N)c2nc(O)n(Cc3ccc(CN[C@H](C(=O)O)[C@@H](C)CC)cc3OC)c2n1 [Compound 121, (4-((6-amino-2-ethoxy-8-hydroxy-9H-purin-9-yl)methyl)-3-methoxybenzyl)-L-isoleucine] | 343 nM | > 10 nM | 13300 nM | ≥ 1000 nM | 772 nM |  |
| CCCCCNc1nc(N)c2nc(O)n(Cc3ccc(CNCc4ccc(CN)cc4)cc3)c2n1 [Compound 191, 6-amino-9-(4-(((4-(aminomethyl)benzyl)amino)methyl)benzyl)-2-(pentyl-amino)-9H-purin-8-ol] | 29 nM | < 0.1 nM |  | 45.9 nM | 0.5 nM |  |
| CCOc1nc(N)c2nc(O)n(Cc3ccc(CNCCN4CCOCC4)cc3OC)c2n1 [Compound 135, 6-amino-2-ethoxy-9-(2-methoxy-4-(((2-morpholinoethyl)amino)methyl)benzyl)-9H-purin-8-ol] | 13.3 nM | 0.1 to 1 nM | 42.3 nM | 137 nM | 157 nM |  |
| CCOc1nc(N)c2nc(O)n(Cc3ccc(CN[C@@H](CO)C(=O)O)cc3OC)c2n1 [Compound 119, (4-((6-amino-2-ethoxy-8-hydroxy-9H-purin-9-yl)methyl)-3-methoxybenzyl)-L-serine] | 259 nM | > 10 nM | 3910 nM | ≥ 1000 nM | 1960 nM |  |
| CCCCCNc1nc(N)c2nc(O)n(Cc3ccc(CNC4CCNCC4)cc3)c2n1 [Compound 194, 6-amino-2-(pentylamino)-9-(4-((piperidin-4-ylamino)methyl)benzyl)-9H-purin-8-ol] | 311 nM | 1 to 10 nM | 1100 nM | 1390 nM | 35.9 nM |  |
| CCCCOc1nc(N)c2nc(O)n(Cc3ccc(CN4CCNCC4)cc3OC)c2n1 [Compound 154, 6-amino-2-butoxy-9-(2-methoxy-4-(piperazin-1-ylmethyl)benzyl)-9H-purin-8-ol] | 0.2 nM | > 10 nM | 1970 nM | 217 nM | 2.9 nM |  |
